Results reported in patent publication US9682965B2, “Fumagillol heterocyclic compounds and methods of making and using same” (Zafgen, Inc., priority 2015, dated 2017).
Counter-ions that a name gives are not always drawn. Like-named read-outs stand apart in the source and are kept apart here.

Legend:
[1] = tested on: Male Sprague Dawley rats on high fat diet; assay: 11 day rat DIO model (body weight, food intake, hematology, blood chemistries); type: in vivo; conditions: 264 h, read-out: DIO Rat 11-day weight loss vs vehicle
Method in brief: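 Male Sprague Dawley rats on 45% high-fat diet, acclimated 3 days to vehicle injections, then given compound (0.03-1.0 mg/kg) or vehicle (10% DMSO in water) sc once daily for 11 days. Body weight and food intake recorded daily. Blood taken about 2 h after the final dose for hematology and chemistry.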

[2] = tested on: pregnant Sprague Dawley rats (embryo/fetal development)
Text: Study Summary Rat Embryofetal:
The objective of this study design was to evaluate the potential effects of disclosed compounds on embryo/fetal development when given subcutaneously to pregnant rats once every three days during the critical period of organogenesis (Gestation Days 6-18). Female, Sprague Dawley rats, approximately 10 weeks of age, time bred, were ordered from a certified vendor and housed individually housed in stainless steel cages suspended over flush pans, on a 12-hour light-dark cycle (0700-1900) at 20-26° C. and 30-70% humidity. Rats were fed a standard rodent chow and provided water ad libitum. Rats were received and housed in the facility for a period of approximately 1 to 2 days.
Compounds were formulated using 100% DMSO mixed in Sterile Water for Injection, resulting in 2% DMSO solution in water. If necessary, due to limited solubility of a test article, a higher percentage of DMSO solution in water was used. Groups of 8 mated and presumed pregnant female rats were given subcutaneous doses of vehicle or test article, once every three days, beginning on Gestation Day 6 and ending on Gestation Day 18 (Days 6, 9, 12, 15, and 18), maintained two more days, and then euthanized and necropsied on Gestation Day 20. Body weights was recorded for all animals on Gestation Days 5 (purpose of randomization), 6, 9, 12, 15, 18, and 20 (scheduled euthanasia). Food consumption by weight was recorded on Gestation Days 6, 9, 12, 15, 18, and 20 (scheduled termination).
At necropsy, the dams were examined visually for external abnormalities including palpable masses. The abdominal, thoracic, and cranial cavities and their contents were examined for abnormalities and findings will be recorded. The reproductive tract were examined to record the number of ovarian corpora lutea, the number and location of uterine implantation sites noting the position of the cervix, and the number of early resorptions, late resorptions, live fetuses, and dead fetuses. For dead fetuses and late resorptions, crown-to-rump length and weight were recorded, if possible, and the fetus was discarded. For viable fetuses, weight, sex, and grossly visible external abnormalities were recorded.

recombinant human MetAP2 = recombinant human MetAP2 (Homo sapiens (Human), UniProt P50579); assay: recombinant human MetAP2 enzyme inhibition assay; type: biochemical
Procedure: Compounds are tested for their capacity to inhibit recombinant human MetAP2 activity using the following assay.
Flag tagged Human recombinant MetAP2 expressed and isolated for use as the enzyme source. 10 mM stock solutions of compounds were prepared in 100% DMSO and further diluted in 100% DMSO required concentration to 1 mM stocks. The stock compound solutions and DMSO vehicle controls were diluted to target final compound concentrations using assay buffer to a final concentration of 50 mM HEPES containing 100 mM NaCl, pH adjusted to 7.5. The MAS peptide was formulated to a 7.5 mM stock in distilled water and prior to use further diluted 1:4. […] 40 μl of enzyme was mixed with 100 μl of MnCl2 then further diluted in assay buffer to a final concentration of 16 μg/ml. To test for compound effect on MetAP2 enzyme activity, 5 μl of test compound, 10 μl of MAS substrate/amino acid oxidase mixture, 10 μl of MetAP2 was added to test wells in a 384 well black plate with blank wells containing no enzyme, replaced with 10 μl of assay buffer. All compounds were tested in duplicate on two occasions on the same day.
The plate was sealed with a TopSeal A cover and mixed briefly on an orbital mixer at 900 rpm. The plate was incubated for a further 25 minutes at 25° C. A 5× stock of Amplex buffer was prepared (0.25M sodium phosphate, pH 7.4) and stored at 4° C. […] 25 μl detection reagent was added to each well of the test plate, which was re-sealed and mixed briefly on an orbital shaker.

[3] = tested on: Diet Induced Obese (DIO) C57BL/6 mice; assay: 10 day DIO mouse model (body weight, food intake, hematology, blood chemistry); type: in vivo; conditions: 240 h, read-out: DIO Mouse 10-day weight loss vs vehicle
Method in brief: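 DIO C57BL/6 mice on 60% kcal fat diet received compounds subcutaneously once daily for 10 days at 1.0, 0.5, 0.3, 0.1 or 0.03 mpk, in 10% DMSO in water, after 3-day vehicle acclimation. Body weight and food intake were recorded daily. Hematology and blood chemistry were taken on Day 11, 24 h post-final dose.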

[4] = DIO rat, 1.0 mpk sc, once a day for 11 days
[5] = 6 mpk, subcutaneous, once every three days, Gestation Days 6-18, pregnant rats
[6] = recombinant human MetAP2, MAS peptide substrate, 25 minutes at 25° C
[7] = DIO mouse, 0.3 mpk sc, once a day for 10 days
[8] = DIO rat, 0.3 mpk sc, once a day for 11 days

Chain of recombinant human MetAP2 (P50579 whole entry): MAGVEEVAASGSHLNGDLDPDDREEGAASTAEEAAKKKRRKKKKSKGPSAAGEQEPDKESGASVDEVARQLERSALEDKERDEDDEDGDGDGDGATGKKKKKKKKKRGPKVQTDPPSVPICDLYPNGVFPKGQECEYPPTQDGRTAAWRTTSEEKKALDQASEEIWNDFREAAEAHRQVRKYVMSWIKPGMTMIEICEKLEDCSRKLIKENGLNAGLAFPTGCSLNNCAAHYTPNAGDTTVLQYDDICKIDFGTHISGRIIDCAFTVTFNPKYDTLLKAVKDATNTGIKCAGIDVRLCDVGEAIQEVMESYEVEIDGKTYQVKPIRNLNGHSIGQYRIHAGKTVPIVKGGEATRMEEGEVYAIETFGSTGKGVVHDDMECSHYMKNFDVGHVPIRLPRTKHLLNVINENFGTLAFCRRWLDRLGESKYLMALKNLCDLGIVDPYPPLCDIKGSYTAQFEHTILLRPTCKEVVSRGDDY

Compound	inhibition in vivo at 1 mg/kg [1, 4] [%]	Rat Embryofetal @6 mpk [2, 5]	inhibition in vivo at 0.3 mg/kg [3, 7] [%]	inhibition in vivo at 0.3 mg/kg ([1]; Rattus norvegicus, sc) [%]	Rat Embryofetal @6 mpk ([2]; rat, in vivo)	inhibition in vivo at 0.3 mg/kg ([3]; Mus musculus, sc) [%]	inhibition in vivo at 0.3 mg/kg [1, 8] [%]	other results
CCN(CC)CCC1CN(C(=O)O[C@@H]2CC[C@]3(CO3)[C@@H]([C@@]3(C)O[C@@H]3CC=C(C)C)[C@@H]2OC)C1 [Example 103, (3R,4S,5S,6R)-5-methoxy-4-((2R,3R)-2-methyl-3-(3-methylbut-2-enyl)oxiran-2-yl)-1-oxaspiro[2.5]octan-6-yl 3-(2-(diethylamino)ethyl)azetidine-1-carboxylate]	4.7	Positive	6.7	–	–	–	–	inhibition in vivo at 0.5 mg/kg ([1]; DIO rat, 0.5 mpk sc, once a day for 11 days): 2.57%; IC50 (recombinant human MetAP2; [6]): < 50 nM; inhibition in vivo at 0.1 mg/kg ([3]; DIO mouse, 0.1 mpk sc, once a day for 10 days): 5.1%; inhibition in vivo at 1 mg/kg ([3]; DIO mouse, 1.0 mpk sc, once a day for 10 days): 15.8%
CCN(CC)CCNC(=O)CCC1CN(C(=O)O[C@@H]2CC[C@]3(CO3)[C@@H]([C@@]3(C)O[C@@H]3CC=C(C)C)[C@@H]2OC)C1 [Example 88, (3R,4S,5S,6R)-5-methoxy-4-((2R,3R)-2-methyl-3-(3-methylbut-2-enyl)oxiran-2-yl)-1-oxaspiro[2.5]octan-6-yl 3-(3-(2-(diethylamino)ethylamino)-3-oxopropyl)azetidine-1-carboxylate formate]	–	–	–	4.4	Positive	9	–	IC50 (recombinant human MetAP2): < 50 nM
CO[C@@H]1[C@H](OC(=O)N2CC(CCN3CC(C)(O)C3)C2)CC[C@]2(CO2)[C@H]1[C@@]1(C)O[C@@H]1CC=C(C)C [Example 9, (3R,4S,5S,6R)-5-methoxy-4-((2R,3R)-2-methyl-3-(3-methylbut-2-enyl)oxiran-2-yl)-1-oxaspiro[2.5]octan-6-yl 3-(2-(3-hydroxy-3-methylazetidin-1-yl)ethyl)azetidine-1-carboxylate formate]	–	–	–	5.5	Positive	7.4	–	inhibition in vivo at 1 mg/kg ([1]; Rattus norvegicus, sc): 4.8%
CO[C@@H]1[C@H](OC(=O)N2CC(CCN3CCOCC3)C2)CC[C@]2(CO2)[C@H]1[C@@]1(C)O[C@@H]1CC=C(C)C [Example 1, (3R,4S,5S,6R)-5-methoxy-4-((2R,3R)-2-methyl-3-(3-methylbut-2-en-1-yl)oxiran-2-yl)-1-oxaspiro[2.5]octan-6-yl 3-(2-morpholinoethyl)azetidine-1-carboxylate]	7.7	Negative	16.8	–	–	–	5.7	–
CNC(=O)OC1CN(C(=O)O[C@@H]2CC[C@]3(CO3)[C@@H]([C@@]3(C)O[C@@H]3CC=C(C)C)[C@@H]2OC)C1 [Example 74, (3R,4S,5S,6R)-5-methoxy-4-((2R,3R)-2-methyl-3-(3-methylbut-2-enyl)oxiran-2-yl)-1-oxaspiro[2.5]octan-6-yl 3-(methylcarbamoyloxy)azetidine-1-carboxylate]	6	Negative	12.3	–	–	–	7.9	IC50 (recombinant human MetAP2; [6]): < 50 nM
CO[C@@H]1[C@H](OC(=O)N2CC(CCN3CC(O)C3)C2)CC[C@]2(CO2)[C@H]1[C@@]1(C)O[C@@H]1CC=C(C)C [Example 6, (3R,4S,5S,6R)-5-methoxy-4-((2R,3R)-2-methyl-3-(3-methylbut-2-enyl)oxiran-2-yl)-1-oxaspiro[2.5]octan-6-yl 3-(2-(3-hydroxyazetidin-1-yl)ethyl)azetidine-1-carboxylate formate]	–	–	–	0.8	Positive	11.8	–	inhibition in vivo at 1 mg/kg ([1]; Rattus norvegicus, sc): 4.6%
CO[C@@H]1[C@H](OC(=O)/C=C/c2ccc(OCCN(C)C)cc2)CC[C@]2(CO2)[C@H]1[C@@]1(C)O[C@@H]1CC=C(C)C [A, [(3R,6R,7S,8S)-7-methoxy-8-[(2R,3R)-2-methyl-3-(3-methylbut-2-enyl)oxiran-2-yl]-2-oxaspiro[2.5]octan-6-yl] (E)-3-[4-[2-(dimethylamino)ethoxy]phenyl]prop-2-enoate, reference compound]	–	Positive	18	–	–	–	20	–
